Source: patent publication US20230266302A1, “SYNTHESIS AND USE OF N-BENZYL SULFONAMIDES” (THE UNIVERSITY OF TULSA, priority 2020, published 2023)

Assays:
Assay in all cases: ATP level assay (CellTiter-Glo), percent of control
Format in all cases: cell-based
NCI-H196 (lung cancer) = settings: two hour incubation; for activity at 100 µM: NCI-H196, 2 h, compound alone, control DMSO, read-out: POC (percent of control) NCI-H196
From the text: (§1) In the present method, the method of using the available assays has been modified to measure the short-term effect of compounds of interest on ATP levels in the cells. […] In the modified method, the control and test cells are initially treated with the metabolic inhibitor for a period of about thirty minutes to about four hours. Typically, the treatment of the cells with the metabolic inhibitor is for one hour prior to adding the compound to be screened for anti-cancer properties. However, simultaneous treatment with the metabolic inhibitor and the compound being screened should provide satisfactory results. […] ATP synthesis in cells occurs over multiple biochemical pathways. These pathways are very responsive to metabolic inhibitors and/or changes in available nutrients. By incorporating a metabolic inhibitor which is known to impact certain pathways, the disclosed method provides for measurement of a compound's direct effects on the remaining metabolic pathways available for ATP synthesis in the cell.
(§2) Following treatment of the control and test cells with the metabolic inhibitor, the method calls for addition of the compound to be screened for anti-cancer properties to the cells. Following addition of the compound of interest, the assay is allowed to continue for about one hour to about four hours or depending on the luminescing agent up to eighteen hours. However, approximately 60 minutes will be sufficient to determine the ATP inhibiting effect of the compound to be screened on the cells. Following completion of the selected time period, the ATP level within the cell is determined. ATP levels can be determined by luminescence according to standard measuring procedures, i.e. the luminescence level of the assay from the living cells treated with the two component composition is compared to the luminescence level of the assay from the living cells without the two component composition, i.e., the control experiment. Thus, the ATP levels are determined without killing the cells during the incubation of the cells in the presence of the compound of interest. As a result, the measured reduction in ATP level corresponds directly to the inhibition of the metabolic pathways uninhibited by the metabolic blocker.
(§3) A wide variety of ATP luminescing detection reagents are available commercially. So long as the reagent produces a luminescence in the presence of ATP, the reagent will be suitable for use in the present method. Suitable reagents include but are not limited to any ATP dependent luciferase such as but not limited to firefly luciferase, other modified luciferase based reagents, i.e. luciferase derivatives. According to the rapid method for determining the anti-cancer activity of a compound, a sample of living cells is distributed across a number of testing wells. Typically, 96-well plates are used; however, the number of wells is not critical to the current method. When using a 96-well plate the number of living cells will commonly be about 20,000. The sample wells contain a cell growth medium to promote cell health and growth and an additive to prevent bacterial contamination of the wells. One common example of the cell growth medium is DMEM with 10% FBS as described above. One example of the additive to prevent bacterial contamination is a solution of penicillin G and streptomycin referred to commonly as Pen-Strep. The Pen-Strep solution typically contains 5000 units of penicillin G and 5000 micrograms of streptomycin. Thus, the rapid determination of anti-cancer compounds can be carried out using the following method. • The desired number of cells are distributed in a 96-well plate containing 100 μL DMEM plus 10% FBS with optional Pen-Strep. • After 24 hours, cells are treated with the compound of interest or a 5% solution of dimethyl sulfoxide (DMSO) in water as a control. • The time period for exposure to the compound of interest and the DMSO control will vary depending on the luminescing detection reagent. […]

MCF7 (breast cancer) = settings: two hour incubation; for activity at 100 µM: Homo sapiens, MCF7, 2 h, compound alone, control DMSO, read-out: POC (percent of control) MCF7
From the text: as §1, §2, §3

SkBr3 (breast cancer) = settings: two hour incubation; for activity at 100 µM: Homo sapiens, SK-BR-3, 2 h, compound alone, control DMSO, read-out: POC (percent of control) SkBr3
From the text: as §1, §2, §3

MDA-MB (breast cancer) = settings: two hour incubation; for activity at 100 µM: 2 h, compound alone, control DMSO, read-out: POC (percent of control) MDA-MB
From the text: as §1, §2, §3

T47D (breast cancer) = settings: two hour incubation; for activity at 100 µM: Homo sapiens, T47D, 2 h, compound alone, control DMSO, read-out: POC (percent of control) T47D
From the text: as §1, §2, §3

HeLa (cervical cancer) = settings: two hour incubation; for activity at 100 µM: Homo sapiens, HeLa, 2 h, compound alone, control DMSO, read-out: POC (percent of control) HeLa
From the text: as §1, §2, §3

[1] = test system: BxPC3 (pancreatic cancer); settings: two hour incubation; for activity at 100 µM: Homo sapiens, BXPC-3, 2 h, compound alone, control DMSO, read-out: POC (percent of control) BxPC3
From the text: as §1, §2, §3

H293 (kidney cancer) = settings: two hour incubation; for activity at 100 µM: 2 h, compound alone, control DMSO, read-out: POC (percent of control) H293
From the text: as §1, §2, §3

[2] = test system: MCF10A (non-cancerous breast); settings: two hour incubation; for activity at 100 µM: Homo sapiens, MCF-10A, 2 h, compound alone, control DMSO, read-out: POC (percent of control) MCF10A
From the text: as §1, §2, §3

PC3 (prostate cancer) = settings: two hour incubation; for activity at 100 µM: 2 h, compound alone, control DMSO, read-out: POC (percent of control) PC3
From the text: as §1, §2, §3

HDF (normal cells) = settings: two hour incubation; for activity at 100 µM: 2 h, compound alone, control DMSO, read-out: POC (percent of control) HDF
From the text: as §1, §2, §3

[3] = compound 100 uM + 2DG (about 10-20 mM)
[4] = compound 100 uM + rotenone (approximately 1.25 μM)

| Compound | activity at 100 µM (NCI-H196 (lung cancer)) | POC (percent of control) NCI-H196 (NCI-H196 (lung cancer); [3]) | POC (percent of control) NCI-H196 (NCI-H196 (lung cancer); [4]) | activity at 100 µM (MCF7 (breast cancer)) | POC (percent of control) MCF7 (MCF7 (breast cancer); [3]) | POC (percent of control) MCF7 (MCF7 (breast cancer); [4]) | activity at 100 µM (SkBr3 (breast cancer)) | POC (percent of control) SkBr3 (SkBr3 (breast cancer); [3]) | POC (percent of control) SkBr3 (SkBr3 (breast cancer); [4]) | activity at 100 µM (MDA-MB (breast cancer)) | POC (percent of control) MDA-MB (MDA-MB (breast cancer); [3]) | POC (percent of control) MDA-MB (MDA-MB (breast cancer); [4]) | activity at 100 µM (T47D (breast cancer)) | POC (percent of control) T47D (T47D (breast cancer); [3]) | POC (percent of control) T47D (T47D (breast cancer); [4]) | activity at 100 µM (HeLa (cervical cancer)) | POC (percent of control) HeLa (HeLa (cervical cancer); [3]) | POC (percent of control) HeLa (HeLa (cervical cancer); [4]) | activity at 100 µM [1] | POC (percent of control) BxPC3 [1, 3] | also measured |
| --- | --- | --- | --- | --- | --- | --- | --- | --- | --- | --- | --- | --- | --- | --- | --- | --- | --- | --- | --- | --- | --- |
| Cn1cc(CNS(=O)(=O)c2ccc(Cl)cc2)c2ccccc21 [Compound 29, 4-chloro-N-[(1-methyl-1H-indol-3-yl)methyl]benzenesulfonamide] | 192% | 51.3% of control | 100.3% of control | 105% | 90.9% of control | 98% of control | 102% | 72.5% of control | 78.6% of control | 81.1% | 64.7% of control | 69.7% of control | 90% | 60.7% of control | 77.6% of control | 80.9% | 83.9% of control | 93.1% of control | 80.8% | 51.7% of control | POC (percent of control) BxPC3 [1, 4]: 52.7% of control; activity at 100 µM (H293 (kidney cancer)): 91.2%; POC (percent of control) H293 (H293 (kidney cancer); [3]): 55% of control; POC (percent of control) H293 (H293 (kidney cancer); [4]): 50.5% of control; activity at 100 µM [2]: 78.9%; POC (percent of control) MCF10A [2, 3]: 46.2% of control; POC (percent of control) MCF10A [2, 4]: 62.7% of control; activity at 100 µM (PC3 (prostate cancer)): 77.8%; POC (percent of control) PC3 (PC3 (prostate cancer); [3]): 67.5% of control; POC (percent of control) PC3 (PC3 (prostate cancer); [4]): 67% of control; activity at 100 µM (HDF (normal cells)): 95.8%; POC (percent of control) HDF (HDF (normal cells); [3]): 73% of control; POC (percent of control) HDF (HDF (normal cells); [4]): 81.5% of control |
| Cc1ccc(S(=O)(=O)NCc2cscn2)cc1 [Compound 17, 4-methyl-N-(1,3-thiazol-4-ylmethyl)benzenesulfonamide] | 96.8% | 103.8% of control | 89.4% of control | 145% | 114.6% of control | 90.6% of control | 90.1% | 88.8% of control | 95.4% of control | 105% | 89.8% of control | 98.1% of control | 83% | 89.1% of control | 104.6% of control | 90.3% | 118.8% of control | 110.3% of control | 91.4% | 101.4% of control | POC (percent of control) BxPC3 [1, 4]: 75.7% of control; activity at 100 µM (H293 (kidney cancer)): 80.4%; POC (percent of control) H293 (H293 (kidney cancer); [3]): 85.8% of control; POC (percent of control) H293 (H293 (kidney cancer); [4]): 74.9% of control; activity at 100 µM [2]: 92.4%; POC (percent of control) MCF10A [2, 3]: 97.1% of control; POC (percent of control) MCF10A [2, 4]: 91.6% of control; activity at 100 µM (PC3 (prostate cancer)): 113%; POC (percent of control) PC3 (PC3 (prostate cancer); [3]): 93.7% of control; POC (percent of control) PC3 (PC3 (prostate cancer); [4]): 90.9% of control; activity at 100 µM (HDF (normal cells)): 90.7%; POC (percent of control) HDF (HDF (normal cells); [3]): 98% of control; POC (percent of control) HDF (HDF (normal cells); [4]): 84.1% of control |
| COc1ncccc1CNS(=O)(=O)c1ccccc1 [Compound 13, N-[(2-methoxypyridin-3-yl)methyl]benzenesulfonamide] | 87.6% | 127.4% of control | 99.7% of control | 127% | 89.7% of control | 116.5% of control | 101% | 87.2% of control | 96.5% of control | 101% | 81.9% of control | 103.8% of control | 84.3% | 88.8% of control | 90% of control | 94.6% | 90.7% of control | 94.1% of control | 91.2% | 74.1% of control | POC (percent of control) BxPC3 [1, 4]: 55.3% of control; activity at 100 µM (H293 (kidney cancer)): 101%; POC (percent of control) H293 (H293 (kidney cancer); [3]): 69.4% of control; POC (percent of control) H293 (H293 (kidney cancer); [4]): 81.1% of control; activity at 100 µM [2]: 94.8%; POC (percent of control) MCF10A [2, 3]: 96.1% of control; POC (percent of control) MCF10A [2, 4]: 84% of control; activity at 100 µM (PC3 (prostate cancer)): 82.2%; POC (percent of control) PC3 (PC3 (prostate cancer); [3]): 97.3% of control; POC (percent of control) PC3 (PC3 (prostate cancer); [4]): 101.2% of control; activity at 100 µM (HDF (normal cells)): 96.5%; POC (percent of control) HDF (HDF (normal cells); [3]): 104.2% of control; POC (percent of control) HDF (HDF (normal cells); [4]): 98.3% of control |
